Patent US20090069300A1, “ISOQUINOLINYL AND ISOINDOLINYL DERIVATIVES AS HISTAMINE-3 ANTAGONISTS” (Wyeth, priority 2007, published 2009)
Counter-ions that a name gives are not always drawn.

The molecules below were run against T1, Human Histamine H3 Receptor (Homo sapiens, UniProt Q9Y5N1) (assay: Methyl histamine binding in human histamine H3 receptor cell line). Details: not given.
T1 construct: expressed in transfected cells; host or cells: HEK293T (stably transfected; membranes prepared from the cells)
T1 sequence (Q9Y5N1 whole entry): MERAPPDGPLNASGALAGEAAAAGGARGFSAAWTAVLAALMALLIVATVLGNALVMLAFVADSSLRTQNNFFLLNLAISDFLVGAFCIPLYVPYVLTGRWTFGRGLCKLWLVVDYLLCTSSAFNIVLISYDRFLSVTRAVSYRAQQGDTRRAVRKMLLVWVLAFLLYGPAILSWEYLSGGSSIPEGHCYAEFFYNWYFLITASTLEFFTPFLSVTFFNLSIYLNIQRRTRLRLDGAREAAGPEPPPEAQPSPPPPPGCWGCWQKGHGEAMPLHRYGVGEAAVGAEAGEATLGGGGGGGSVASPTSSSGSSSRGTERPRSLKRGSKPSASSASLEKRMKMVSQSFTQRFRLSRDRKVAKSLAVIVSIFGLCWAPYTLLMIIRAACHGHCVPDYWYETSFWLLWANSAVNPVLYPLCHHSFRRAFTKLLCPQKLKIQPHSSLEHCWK
Protocol: Evaluation of Methyl Histamine Binding in Human Histamine H3 Receptor Cell Line
The affinity of test compounds for the histamine 3 (H3) receptor is evaluated in the following manner. […] Cells are scraped from the plate, transferred to centrifuge tubes, washed one time in PBS by centrifugation in a Sorvall RT7 Plus centrifuge (2000 rpm 10 minutes, 4° C.). The resulting pellets are stored at −80° C. until ready for use. Cells are re-suspended in buffer (50 mM Tris pH=7.5) and placed in a Dounce homogenizer, douncing ten times to homogenize cells. The homogenate is spun down by centrifugation (Sorvall RT7 Plus, 1800 rpm 10 minutes, 4° C.). The supernatant is placed in a Corex tube and spun down by centrifugation (Sorvall RC 5c Plus, 17,000 rpm 20 minutes, 4° C.). The pellet is resuspended in buffer (50 mM Tris, pH 7.5). Protein concentration (ug/ul) is determined using the Micro-BCA Protein Determination. The binding assay is set up in a 96 well microtiter plate in a total volume of 250 uL. Non-specific binding is determined in the presence of 10 uM clobenpropit. The final radioligand concentration is 1 nM. The test compound is serially diluted using the Beckman Biomek2000 to a final approximate range of 100 uM to 100 pM. Membranes are suspended in buffer, homogenized in 2 bursts of ten seconds using a Vitris mechanical homogenizer set at power setting 5. Ten μg of membranes are added to each well. Following a one hour incubation at 30° C., the reaction is terminated by the addition of ice cold buffer and rapid filtration with a Packard Filtermate Harvester through a GF/B filter pre-soaked with 1% PEI for one hour. The plate is dried for one hour at 37° C. and 60 μL Microscint Scintillant is added to each well. The CPM per well is measured on a Packard Top Count NXT. Ki values are determined in nM. […] CPM values are expressed as % specific binding and plotted vs compound concentration. A curve is fitted using a four-parameter logistic fit and the IC50 value is determined. The Ki is calculated from this using the Cheng-Prusoff equation: […]=IC50/1+(L/Kd) where L=concentration of free radioligand used in the assay, and Kd is the dissociation constant of the radioligand for the receptor. L is determined for each experiment by counting an aliquot of the diluted radioligand (corresponding to that added to each well) and the Kd has previously been determined under identical conditions for this cell line/radioligand.

Structure (SMILES)	Ki [nM]
O=C(NCCCl)c1ccc(-c2ccc3c(c2)CCN(CCN2CCCC2)C3=O)cc1 [Example 123, N-(2-chloroethyl)-4-[1-oxo-2-(2-pyrrolidin-1-ylethyl)-1,2,3,4-tetrahydroisoquinolin-6-yl]benzamide]	< 10

Same assay, conditions: membranes of stably transfected HEK293T cells; methyl histamine radioligand 1 nM; one hour incubation at 30° C.; Ki from IC50 by Cheng-Prusoff; read-out: H3 Binding Ki

Structure (SMILES)	Ki [nM]
COC(=O)c1ccc(-c2ccc3c(c2)CCN(CCN2CCC[C@H]2C)C3=O)cc1 [Example 25, methyl 4-(2-{2-[(2R)-2-methylpyrrolidin-1-yl]ethyl}-1-oxo-1,2,3,4-tetrahydroiso-quinolin-6-yl)benzoate]	< 10

Same assay, conditions: read-out: H3 Binding Ki

Ki [nM]	Structure (SMILES)
< 10	CC(C)OCCNC(=O)c1ccc(-c2ccc3c(c2)CCN(CCN2CCCC2)C3=O)cc1 [Example 70, N-(2-isopropoxyethyl)-4-[1-oxo-2-(2-pyrrolidin-1-ylethyl)-1,2,3,4-tetrahydroisoquinolin-6-yl]benzamide]
10.1 to 25	C[C@@H]1CCCN1CCN1CCc2c(cccc2-c2ccc(C#N)cc2)C1=O [Example 28, 4-(2-{2-[(2R)-2-methylpyrrolidin-1-yl]ethyl}-1-oxo-1,2,3,4-tetrahydroisoquinolin-5-yl)benzonitrile]
50.1 to 100	C[C@@H]1CCCN1CCN1CCc2c(cccc2-c2cccc(C#N)c2)C1=O [Example 27, 3-(2-{2-[(2R)-2-methylpyrrolidin-1-yl]ethyl}-1-oxo-1,2,3,4-tetrahydroisoquinolin-5-yl)benzonitrile]
< 10	CNC(=O)c1ccc(-c2ccc3c(c2)C(=O)N(CCN2CCC[C@H]2C)CC3)cc1 [Example 83, N-methyl-4-(2-{2-[(2R)-2-methylpyrrolidin-1-yl]ethyl}-1-oxo-1,2,3,4-tetrahydroiso-quinolin-7-yl)benzamide]
< 10	NC(=O)c1ccc(-c2ccc3c(c2)CCN(CCN2CCCC2)C3=O)cc1 [Example 67, 4-[1-oxo-2-(2-pyrrolidin-1-ylethyl)-1,2,3,4-tetrahydroisoquinolin-6-yl]benzamide]
< 10	O=C1c2ccc(-c3ccc(F)cc3)cc2CCN1CCN1CCCCC1 [Example 43, 6-(4-fluorophenyl)-2-(2-piperidin-1-ylethyl)-3,4-dihydroiso-quinolin-1(2H)-one hydrochloride]
< 10	O=C(c1ccc(-c2ccc3c(c2)CCN(CCN2CCCC2)C3=O)cc1Cl)N1CCCC1 [Example 134, 6-[3-chloro-4-(pyrrolidin-1-ylcarbonyl)phenyl]-2-(2-pyrrolidin-1-ylethyl)-3,4-dihydroisoquinolin-1(2H)-one]
< 10	CNC(=O)c1ccc(-c2ccc3c(c2)CCN(CCN2CCCC2)C3=O)c(F)c1 [Example 139, 3-fluoro-N-methyl-4-[1-oxo-2-(2-pyrrolidin-1-ylethyl)-1,2,3,4-tetrahydroisoquinolin-6-yl]benzaimde]
< 10	CCN(C)C(=O)c1ccc(-c2ccc3c(c2)CCN(CCN2CCCC2)C3=O)cc1 [Example 124, N-ethyl-N-methyl-4-[1-oxo-2-(2-pyrrolidin-1-ylethyl)-1,2,3,4-tetrahydroisoquinolin-6-yl]benzamide]
< 10	O=C1c2ccc(-c3ccc(F)c(F)c3)cc2CCN1CCN1CCCC1 [Example 17, 6-(3,4-difluorophenyl)-2-(2-pyrrolidin-1-ylethyl)-3,4-dihydroisoquinolin-1(2H)-one]
< 10	O=C1c2ccc(-n3cnc4ccccc43)cc2CCN1CCN1CCCC1 [Example 108, 6-(1H-benzimidazol-1-yl)-2-(2-pyrrolidin-1-ylethyl)-3,4-dihydroisoquinolin-1(2H)-one Fumarate Salt]
25.1 to 50	N#Cc1cccc(-c2ccc3c(c2)CCN(CCCN2CCCC2)C3=O)c1 [Example 33, 3-[1-oxo-2-(3-pyrrolidin-1-ylpropyl)-1,2,3,4-tetrahydroisoquinolin-6-yl]benzonitrile]
< 10	C[C@@H]1CCCN1CCN1CCc2cc(-c3ccc(C(=O)NC4CCC4)cc3)ccc2C1=O [Example 74, N-cyclobutyl-4-(2-{2-[(2R)-2-methylpyrrolidin-1-yl]ethyl}-1-oxo-1,2,3,4-tetrahydroisoquinolin-6-yl)benzamide]
< 10	O=C(c1ccc(-c2ccc3c(c2)CCN(CCN2CCCC2)C3=O)c(F)c1)N1CCCC1 [Example 138, 6-[2-fluoro-4-(pyrrolidin-1-ylcarbonyl)phenyl]-2-(2-pyrrolidin-1-ylethyl)-3,4-dihydroisoquinolin-1(2H)-one]
< 10	O=C(NCCF)c1ccc(-c2ccc3c(c2)CCN(CCN2CCCC2)C3=O)cc1 [Example 68, N-(2-fluoroethyl)-4-[1-oxo-2-(2-pyrrolidin-1-ylethyl)-1,2,3,4-tetrahydroisoquinolin-6-yl]benzamide]
10.1 to 25	N#Cc1ccc(Oc2ccc3c(c2)CCN(CCN2CCCC2)C3=O)nc1 [Example 47, 6-{[1-oxo-2-(2-pyrrolidin-1-ylethyl)-1,2,3,4-tetrahydroisoquinolin-6-yl]oxy}nicotinonitrile]
< 10	C[C@@H]1CCCN1C(=O)c1ccc(-c2ccc3c(c2)CCN(CCN2CCCC2)C3=O)cc1 [Example 82, 6-(4-{[(2R)-2-methylpyrrolidin-1-yl]carbonyl}phenyl)-2-(2-pyrrolidin-1-ylethyl)-3,4-dihydroisoquinolin-1(2H)-one]
10.1 to 25	O=C1c2ccc(-c3ccc(OC(F)(F)F)cc3)cc2CCN1CCN1CCCC1 [Example 14, 2-(2-pyrrolidin-1-ylethyl)-6-[4-(trifluoromethoxy)phenyl]-3,4-dihydroisoquinolin-1(2H)-one]
< 10	C[C@@H]1CCCN1CCN1CCc2cc(Oc3ccc(C#N)cc3)ccc2C1=O [Example 49, 4-[(2-{2-[(2R)-2-methylpyrrolidin-1-yl]ethyl}-1-oxo-1,2,3,4-tetrahydroisoquinolin-6-yl)oxy]benzonitrile]
< 10	O=C1c2ccc(-c3ccncc3)cc2CCN1CCN1CCCC1 [Example 34, 6-pyridin-4-yl-2-(2-pyrrolidin-1-ylethyl)-3,4-dihydroisoquinolin-1(2)-one Hydrochloride]
< 10	O=C1c2ccc(-c3ccc(F)cc3)cc2CCN1CCN1CCCCCC1 [Example 44, 2-(2-azepan-1-ylethyl)-6-(4-fluorophenyl)-3,4-dihydroisoquinolin-1(2H)-one hydrochloride]
< 10	COc1ccc(-c2ccc3c(c2)CCN(CCN2CCCC2)C3=O)cc1 [Example 23, 6-(4-methoxyphenyl)-2-(2-pyrrolidin-1-ylethyl)-3,4-dihydroisoquinolin-1(2H)-one]
< 10	O=C(c1ccc(-c2ccc3c(c2)CCN(CCN2CCCC2)C3)cc1)N1CCOCC1 [Example 186, 6-[4-(morpholin-4-ylcarbonyl)phenyl]-2-(2-pyrrolidin-1-ylethyl)-1,2,3,4-tetrahydroisoquinoline]
< 10	C[C@@H]1CCCN1CCN1CCc2ccc(-c3ccc(C#N)cc3)cc2C1=O [Example 26, 4-(2-{2-[(2R)-2-methylpyrrolidin-1-yl]ethyl}-1-oxo-1,2,3,4-tetrahydroisoquinolin-7-yl)benzonitrile]
< 10	C[C@@H]1CCCN1CCN1CCc2cc(C(=O)NC3Cc4ccccc4C3)ccc2C1=O [Example 148, N-(2,3-dihydro-1H-inden-2-yl)-2-{2-[(2R)-2-methylpyrrolidin-1-yl]ethyl}-1-oxo-1,2,3,4-tetrahydroisoquinoline-6-carboxamide]
10.1 to 25	C[C@H]1CCCN1CCN1CCc2cc(-c3ccc(F)cc3)ccc2C1=O [Example 39, 6-(4-fluorophenyl)-2-{2-[(2S)-2-methylpyrrolidin-1-yl]ethyl}-3,4-dihydroiso-quinolin-1(2H)-one hydrochloride]
